Source: US11882836B2, “1-amino-1-cyclopropanecarboxylic acid mixtures and uses thereof” (Valent BioSciences LLC, priority 2020, dated 2024)

How the values were obtained:
Format in all cases: in vivo
[1] = test system: Prunus (stone fruit) plants; assay: Bud break and shoot development of Prunus plants, ACC and CAN15 mixtures (Example 4); settings: for Mean FW: harvest
Description: (§1) To determine if the mixtures provided unexpected results, the observed combined efficacy (“OCE”) was divided by the expected combined efficacy (“ECE”) wherein the expected ECE is calculated by the Abbott method: ECE=A+B−(AB/100),
If the ratio between the OCE of the mixture and the ECE of the mixture is greater than 1, then greater than expected interactions are present in the mixture.
To assess the ability of mixtures of the invention to promote and synchronize bud break, these mixtures were applied to Prunus (stone fruit) plants in the greenhouse and examined for bud break (initiation of growth) and subsequent shoot development. ACC, Dormex (50% HC), and 15-0-0 fertilizers (CAN15), and mixtures thereof were each applied individually or sequentially (co-applied) to the shoots of Prunus plants.

Malus (apple) rootstocks = assay: Bud break and shoot development of Malus (apple) rootstocks after shoot application (Example 1); settings: for Average Number of Broken Buds Per Malus Plant at Harvest / Average Number of Broken Nodes Per Centimeter of Shoot at Harvest / Fresh Weight at Harvest / Fresh Weight per Bud at Harvest: 28 days; for Fresh Weight at Harvest / Fresh Weight per Bud at Harvest: Malus
Excerpt: To assess the ability of mixtures of the invention to promote and synchronize bud break, these mixtures were applied to field-grown Malus (apple) rootstocks and examined for bud break (initiation of growth) and subsequent shoot development. ACC, Dormex® (50% HC), 15-0-0 (Erger®) and 17-0-0 fertilizers (CAN17), and mixtures thereof were each applied individually or sequentially (co-applied) to the shoots of potted Malus rootstocks that were pruned to a height of 25 centimeters. Plants were evaluated for bud break at 28 days after treatment.
as §1
(§2) wherein ECE is the expected combined efficacy and in which A and B are the speed of bud break relative to control, the number of buds broken per plant relative to control, shoot length relative to control or shoot weight relative to control given by the single active ingredients. If the ratio between the OCE of the mixture and the ECE of the mixture is greater than 1, then greater than expected interactions are present in the mixture. (Gisi, Synergistic Interaction of Fungicides in Mixtures, The American Phytopathological Society, 86:11, 1273-1279, 1996).

[2] = test system: Prunus (stone fruit) plants; assay: Bud break and shoot development of Prunus plants, ACC and CAN17 mixtures (Example 3); settings: for Mean FW: harvest
Description: as §1, §2
To assess the ability of mixtures of the invention to promote and synchronize bud break, these mixtures were applied to Prunus (stone fruit) plants in the greenhouse and examined for bud break (initiation of growth) and subsequent shoot development. ACC, Dormex® (50% HC), and 17-0-0 fertilizers (CAN17), and mixtures thereof were each applied individually or sequentially (co-applied) to the shoots of Prunus plants. Plants were evaluated for bud break from 4-21 days after treatment.

[3] = test system: Prunus (stone fruit) plants; assay: Bud break and shoot development of Prunus (stone fruit) plants in the greenhouse (Example 2); settings: for FW (grams): harvest, 28 days
Description: as §1, §2
To assess the ability of mixtures of the invention to promote and synchronize bud break, these mixtures were applied to Prunus (stone fruit) plants in the greenhouse and examined for bud break (initiation of growth) and subsequent shoot development. ACC, Dormex® (50% HC), 15-0-0 (Erger®) and 17-0-0 fertilizers (CAN17), and mixtures thereof were each applied individually or sequentially (co-applied) to the shoots of Prunus plants. Plants were evaluated for bud break at 28 days after treatment.

SMILES: NC1(C(=O)O)CC1 [ACC, 1-amino-1-cyclopropanecarboxylic acid]
- 0-100% BB ([1]; ACC 100 ppm): 6 days
- 50% BB ([1]; ACC 100 ppm): 10 days
- Mean FW ([1]; ACC 100 ppm): 1.01 g
- 0-100% BB ([1]; ACC 300 ppm): 5 days
- 50% BB ([1]; ACC 300 ppm): 10 days
- Mean FW ([1]; ACC 300 ppm): 1.46 g
- 0-100% BB ([1]; ACC 600 ppm): 7 days
- 50% BB ([1]; ACC 600 ppm): 9 days
- Mean FW ([1]; ACC 600 ppm): 2.57 g
- 50% BB (Malus (apple) rootstocks; ACC 300 ppm): 14 days
- Average Number of Broken Buds Per Malus Plant at Harvest (Malus (apple) rootstocks; ACC 300 ppm): 6.13
- Average Number of Broken Nodes Per Centimeter of Shoot at Harvest (Malus (apple) rootstocks; ACC 300 ppm): 0.25
- Fresh Weight at Harvest (Malus (apple) rootstocks; ACC 300 ppm): 4.34 grams
- Fresh Weight per Bud at Harvest (Malus (apple) rootstocks; ACC 300 ppm): 0.66 grams
- 50% BB (Malus (apple) rootstocks; ACC 1000 ppm): 16 days
- Average Number of Broken Buds Per Malus Plant at Harvest (Malus (apple) rootstocks; ACC 1000 ppm): 7.38
- Average Number of Broken Nodes Per Centimeter of Shoot at Harvest (Malus (apple) rootstocks; ACC 1000 ppm): 0.30
- Fresh Weight at Harvest (Malus (apple) rootstocks; ACC 1000 ppm): 3.05 grams
- Fresh Weight per Bud at Harvest (Malus (apple) rootstocks; ACC 1000 ppm): 0.46 grams
- 0-100% BB ([2]; ACC 100 ppm): 10 days
- 50% BB ([2]; ACC 100 ppm): 11 days
- Mean FW ([2]; ACC 100 ppm): 0.52 g
- 0-100% BB ([2]; ACC 300 ppm): 13 days
- 50% BB ([2]; ACC 300 ppm): 10 days
- Mean FW ([2]; ACC 300 ppm): 1.84 g
- 0-100% BB ([2]; ACC 600 ppm): 12 days
- 50% BB ([2]; ACC 600 ppm): 10 days
- Mean FW ([2]; ACC 600 ppm): 1.28 g
- 50% BB ([3]; ACC 300 ppm): 12 days
- FW (grams) ([3]; ACC 300 ppm): 3.95 grams
- 50% BB ([3]; ACC 1000 ppm): 7 days
- FW (grams) ([3]; ACC 1000 ppm): 3.81 grams

SMILES: N#CN [HC, hydrogen cyanamide, reference compound]
- 0-100% BB ([1]; HC 1% (v/v)): 6 days
- 50% BB ([1]; HC 1% (v/v)): 9 days
- Mean FW ([1]; HC 1% (v/v)): 3.15 g
- 50% BB (Malus (apple) rootstocks; HC 1% (v/v)): 12 days
- Average Number of Broken Buds Per Malus Plant at Harvest (Malus (apple) rootstocks; HC 1% (v/v)): 8.13
- Average Number of Broken Nodes Per Centimeter of Shoot at Harvest (Malus (apple) rootstocks; HC 1% (v/v)): 0.325
- Fresh Weight at Harvest (Malus (apple) rootstocks; HC 1% (v/v)): 7.99 grams
- Fresh Weight per Bud at Harvest (Malus (apple) rootstocks; HC 1% (v/v)): 0.98 grams
- 0-100% BB ([2]; HC 1% (v/v)): 6 days
- 50% BB ([2]; HC 1% (v/v)): 9 days
- Mean FW ([2]; HC 1% (v/v)): 1.64 g
- 50% BB ([3]; HC 1% (v/v)): 7 days
- FW (grams) ([3]; HC 1% (v/v)): 4.76 grams
